From US20060217340A1, “Methods and products for treating hypertension by modulation of TRPC3 channel activity” (University of Vermont and State Agricultural College, priority 2005, published 2006)

Key:
[1] = test system: TRPC3; test: Western analysis of TRPC3 protein expression in arteries; format: cell-based, rat; conditions: Angiotensin-II hypertensive rats; cerebral and mesenteric arteries
Procedure: (§1) Western Analysis. Arterial segments were homogenized in lysis buffer (5 minutes, 4° C.) containing (in mM): 40 CAPS, 1 DL-Dithiothreitol (DTT), 10 EDTA, 15 MgCl2, 115 NaCl, 1 NaOrthovanadate, 1 NaF, 2.5 Urea, and 0.25% deoxychlorate, 10% glycerol, 1% NP-40, 0.2% SDS, and 1:50 mammalian protease inhibitor cocktail (Sigma, St. Louis, Mo., USA). Equal amounts of sample protein were separated on a 10% polyacrylamide gel and transferred to a nitrocellulose membrane. The membranes were exposed to a TRPC3 or TRPC6 polyclonal antibody (anti-rabbit 1:200 dilution, Alomone Labs, Jerusalem, Israel) and a […] (GAPDH) monoclonal antibody (anti-mouse, 1:1000 dilution, Chemicon Labs, Temecula, Calif., USA). Alexa-Fluor 680® goat anti-rabbit (Molecular Probes, Eugene, Oreg., USA) and IRDyeTM800 anti-mouse (Rockland Immunochemicals, Gilbertsville, Pa., USA) were used to fluorescently label the TRPC3 and GAPDH antibodies respectively. The density of signals specific for the TRPC3 and GAPDH bands in a given lane on a membrane were measured after scanning the membrane with an Odyssey® infared imaging system (Li-COR Biosciences, Lincoln, Nebr., USA). Quantified amounts were normalized to a total protein amount lane on the polyacrylamide gel.
Oligodeoxynucleotide Sequences and Reverse Permeabilization. TRPC6 sense and antisense oligodeoxynucleotides (ODN's) were designed as previously described (Welsh et al 2002 Circ Res 90, 248-250) and were as follows: sense, 5′-[…]-3′ (SEQ ID: 3) and 5′-GCACACGCAGCCTCTTCAC-3′ (SEQ ID: 4) antisense, 5′-[…]-3′ (SEQ ID: 5) and 5′-[…]-3′ (SEQ ID: 6). TRPC3 sense and antisense ODN's were designed based on the rat TRPC3 gene (Ohki et al 2000 J Biol Chem 275: 39055-39060) and are as follows: sense, 5′-[…]-3′ (SEQ ID: 7) and 5′-[…]-3′ (SEQ ID: 8); anti-sense, 5′-[…]-3′ (SEQ ID: 9) and 5′-[…]-3′ (SEQ ID: 10). The last five bases on the 5′ and 3′ end were phosphorothioated in order to limit ODN degradation. […]

[2] = test system: TRPC6; test: Western analysis of TRPC6 protein expression in arteries; format: cell-based, rat; conditions: Angiotensin-II hypertensive rats; cerebral arteries
Procedure: as §1
Oligodeoxynucleotide Sequences and Reverse Permeabilization. […]

[3] = Blood pressure (MAP) by tailcuff; format: in vivo, rat; conditions: 12 days subcutaneous osmotic pump, tailcuff just prior to euthanasia
Procedure: Animals and tissues. Twelve- to 16-week old male Sprague-Dawley rats, spontaneously hypertensive rats (SHR), and Wistar-Kyoto rats ([…]) (Charles River Laboratories, St. Constant, Canada) were studied. All animal use procedures were in accordance with institutional guidelines and approved by the institutional Animal Care and Use Committee at the University of Vermont. Rats were euthanized with an injection of pentobarbitone (150 mg/kg ip) followed by exsanguination. The brain was removed and cerebellar and cerebral arteries (between 125 and 225 μm diameter) were dissected free in ice-cold MOPS-buffered saline solution containing (in mM): 3 MOPS, 145 NaCl, 5 KCl, 1 MgSO4.7H2O, 2.5 CaCl2, 1 KH2PO4, 0.02 EGTA, 2 pyruvate, 5 glucose and 1% bovine serum albumin (BSA) at pH 7.4. Angiotensin II or a control vehicle (physiological saline solution) was administered for 12 days using a subcutaneous osmotic pump. Blood pressures (MAP) were measured by tailcuff just prior to euthanasia and averaged 93±2 mm Hg in control rats and 146±5 mm Hg in Angiotensin II treated rats.

## Angiotensin II (DRVYIHPF; Angiotensin-2; UniProt P01015 25-32, looked up)
[1]
  expression of TRPC3 versus normotensive controls: trends towards increased expression
[2]
  expression of TRPC6 versus normotensive controls: increased expression
[3]
  Blood pressure (MAP): 146±5 mm Hg
